Legend:
FGFR1 = target: T1, FGFR1 (Homo sapiens, UniProt P11362); test: FGFR1 Biochemical Caliper Assay (KinEASE-TK kit); settings: ratio FGFR1/FGFR2 of the biochemical assay
T1 construct: purchased Carna 08-133
Method: (§1) Compounds of the present invention were tested in a FGFR1, FGFR2, and FGFR3 Biochemical Caliper Assay. Enzyme activity was monitored using KinEASE-TK kit (CisBio, Cat.No. 62TK0PEC) according to manufacturer's instructions. […] Final enzyme concentration was 0.2 nM for FGFR1 and FGFR3, 0.07 nM for FGFR2. Compounds were prepared in 10 mM DMSO and serially diluted into 10 concentrations by 3-fold dilution. Prior to the initiation of the reaction by adding TK-substrate/ATP mixture, the compounds were incubated with protein for 10 min at RT. […] Plates were quenched by adding TK-antibody-Cryptate and Sa-XL665 mixture. After 60 min in the stop solution, read the signal on microplate reader (Molecular Devices, i3x), excitation of 320 nm and emission of 615 nm and 665 nm with a […]. IC50 values were calculated using Prism 7 (GraphPad).

SNU16 cells = test: SNU16 Cancer Cell Line Proliferation Assay (CellTiter-Glo); format: cell-based; settings: Homo sapiens, SNU-16, 72 h
Method: Compounds of the present invention were also tested in a SNU16 Cancer Cell Line Proliferation Assay.
SNU16 cells were plated in 96-well clear bottom/white plate(Costar, Cat.No. 3610) at 5000 cells/well in 100 μl medium. Test compounds were prepared in a 10 mM DMSO stock solution and serially diluted into 9 concentrations by 3-fold dilution. 0.5 μl of each concentration of compound was added into the cell culture plates and DMSO as a control. The plates were incubated for 72 h at 37° C. and 5% CO2 incubator. 50 μl CellTiter-Glo reagent (Promega, G7572) was added into each well and then the plates were shaken gently for 10 min at room temperature. Luminescence was read on microplate reader (Molecular Devices, i3x), IC50 values were calculated using Prism 7 (GraphPad).

FGFR2 = target: T2, FGFR2 (Homo sapiens, UniProt P21802); test: FGFR2 Biochemical Caliper Assay (KinEASE-TK kit); settings: 0.07 nM FGFR2; compound incubated with protein 10 min, reaction 45 min at RT; read-out: FGFR2 Cliper IC50
T2 construct: purchased Carna 08-134
Method: Compounds of the present invention were tested in a FGFR1, FGFR2, and FGFR3 Biochemical Caliper Assay.
as §1, with “Enzyme” for “Compounds of the present invention were tested in a FGFR1, FGFR2, and FGFR3 Biochemical Caliper Assay. Enzyme”

FGFR3 = target: T3, FGFR3 (Homo sapiens, UniProt P22607); test: FGFR3 Biochemical Caliper Assay (KinEASE-TK kit); settings: ratio FGFR3/FGFR2 of the biochemical assay
T3 construct: purchased Carna 08-135
Method: as §1

T2 sequence (P21802 22-821): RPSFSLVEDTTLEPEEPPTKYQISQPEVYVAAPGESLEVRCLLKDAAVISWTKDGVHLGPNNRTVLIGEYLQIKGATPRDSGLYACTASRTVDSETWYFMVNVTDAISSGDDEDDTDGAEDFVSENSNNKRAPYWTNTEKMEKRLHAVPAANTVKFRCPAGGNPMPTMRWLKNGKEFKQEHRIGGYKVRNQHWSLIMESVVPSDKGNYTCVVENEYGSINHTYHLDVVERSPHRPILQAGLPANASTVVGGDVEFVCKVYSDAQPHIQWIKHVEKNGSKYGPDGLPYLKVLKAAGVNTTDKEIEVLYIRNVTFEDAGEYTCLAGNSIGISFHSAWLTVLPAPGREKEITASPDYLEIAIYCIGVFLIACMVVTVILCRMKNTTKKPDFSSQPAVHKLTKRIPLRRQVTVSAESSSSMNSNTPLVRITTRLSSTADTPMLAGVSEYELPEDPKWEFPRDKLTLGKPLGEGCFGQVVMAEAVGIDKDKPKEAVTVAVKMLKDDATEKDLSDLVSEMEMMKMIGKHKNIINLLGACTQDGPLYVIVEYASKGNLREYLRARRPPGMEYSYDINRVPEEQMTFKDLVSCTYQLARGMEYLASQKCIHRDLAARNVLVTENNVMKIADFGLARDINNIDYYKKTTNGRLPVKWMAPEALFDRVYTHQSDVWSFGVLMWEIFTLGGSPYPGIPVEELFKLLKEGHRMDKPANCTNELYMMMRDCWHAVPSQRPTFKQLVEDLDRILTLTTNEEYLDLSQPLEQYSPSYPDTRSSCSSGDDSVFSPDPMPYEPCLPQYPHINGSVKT
T1 sequence (P11362 22-822): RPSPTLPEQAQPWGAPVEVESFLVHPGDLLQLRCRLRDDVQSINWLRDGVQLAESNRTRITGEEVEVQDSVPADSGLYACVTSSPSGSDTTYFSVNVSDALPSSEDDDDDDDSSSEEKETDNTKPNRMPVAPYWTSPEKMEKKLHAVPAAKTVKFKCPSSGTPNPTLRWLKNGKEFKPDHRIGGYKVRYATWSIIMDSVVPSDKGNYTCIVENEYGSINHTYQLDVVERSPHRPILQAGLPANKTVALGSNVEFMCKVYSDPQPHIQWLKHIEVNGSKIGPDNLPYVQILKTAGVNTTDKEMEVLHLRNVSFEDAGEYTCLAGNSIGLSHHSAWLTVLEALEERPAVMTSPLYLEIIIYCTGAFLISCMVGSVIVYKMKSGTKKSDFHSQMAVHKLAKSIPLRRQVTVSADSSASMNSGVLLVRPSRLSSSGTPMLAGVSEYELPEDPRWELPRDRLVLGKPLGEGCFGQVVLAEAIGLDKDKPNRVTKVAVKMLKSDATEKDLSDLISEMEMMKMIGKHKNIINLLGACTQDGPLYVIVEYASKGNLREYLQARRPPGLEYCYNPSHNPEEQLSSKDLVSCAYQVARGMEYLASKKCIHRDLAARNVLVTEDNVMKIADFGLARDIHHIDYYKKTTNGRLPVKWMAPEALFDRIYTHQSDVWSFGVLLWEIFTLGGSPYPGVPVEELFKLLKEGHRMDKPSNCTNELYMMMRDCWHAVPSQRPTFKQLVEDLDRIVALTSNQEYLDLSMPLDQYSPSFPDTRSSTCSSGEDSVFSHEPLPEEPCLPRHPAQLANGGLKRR
T3 sequence (P22607 23-806): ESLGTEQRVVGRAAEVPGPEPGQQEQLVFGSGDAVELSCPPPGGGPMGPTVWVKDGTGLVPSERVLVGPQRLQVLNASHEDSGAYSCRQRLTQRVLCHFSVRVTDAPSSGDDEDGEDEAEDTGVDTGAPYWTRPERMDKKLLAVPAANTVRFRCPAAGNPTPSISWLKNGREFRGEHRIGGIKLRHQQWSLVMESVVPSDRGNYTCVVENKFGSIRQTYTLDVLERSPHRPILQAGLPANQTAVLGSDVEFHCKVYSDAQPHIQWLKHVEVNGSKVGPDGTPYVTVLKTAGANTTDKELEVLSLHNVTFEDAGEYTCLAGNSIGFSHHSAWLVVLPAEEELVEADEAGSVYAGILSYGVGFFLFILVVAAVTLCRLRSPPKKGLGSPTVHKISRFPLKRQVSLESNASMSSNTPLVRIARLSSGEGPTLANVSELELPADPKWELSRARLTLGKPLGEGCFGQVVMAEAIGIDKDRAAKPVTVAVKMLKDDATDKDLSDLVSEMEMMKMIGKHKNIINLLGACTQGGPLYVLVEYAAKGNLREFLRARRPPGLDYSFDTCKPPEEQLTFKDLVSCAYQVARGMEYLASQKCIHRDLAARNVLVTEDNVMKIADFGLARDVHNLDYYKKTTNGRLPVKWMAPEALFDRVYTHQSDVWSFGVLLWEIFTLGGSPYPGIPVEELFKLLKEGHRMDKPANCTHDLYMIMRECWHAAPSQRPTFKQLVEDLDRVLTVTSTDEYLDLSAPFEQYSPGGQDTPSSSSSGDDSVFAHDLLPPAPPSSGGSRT

Row | SMILES | IC50 (SNU16 cells) [nM] | IC50 (FGFR2) [nM] | Selectivity FGFR1/FGFR2 (FGFR1) | Selectivity FGFR3/FGFR2 (FGFR3)
1 | C=CC(=O)Nc1ccc(-c2[nH]c3c(C#N)cnc(N)c3c2-c2ccc(Oc3nccc(C)n3)c(OC)c2)cc1 [Compound 22, N-(4-(4-amino-7-cyano-3-(3-methoxy-4-((4-methylpyrimidin-2-yl)oxy)phenyl)-1H-pyrrolo[3,2-c]pyridin-2-yl)phenyl)acrylamide] | ≤ 10 | < 5 | A (Selectivity of FGFR1/FGFR2 less than 500 but greater than or equal to 300) | B (Selectivity of FGFR3/FGFR2 less than 100 but greater than or equal to 25)
2 | [2H]C([2H])([2H])Oc1cc(-c2c(-c3ccc(NC(=O)C(=C)F)cc3)nn3ncnc(N)c23)ccc1C(=O)NCC1(F)CC1 [Compound 372, 4-(4-amino-6-(4-(2-fluoroacrylamido)phe-nyl)pyrazolo[5,1-f][1,2,4]triazin-5-yl)-N-((1-fluorocyclo-propyl)methyl)-2-(methoxy-d3)benzamide] | ≤ 10 | < 5 | A+ (Selectivity of FGFR1/FGFR2 greater or equal to 500) | A+ (Selectivity of FGFR3/FGFR2 greater or equal to 150)
3 | C=CC(=O)Nc1ccc(-c2c(-c3ccc(Oc4nccc(C)n4)cc3)c3c(N)ncc(C#N)c3n2C)cc1 [Compound 69, N-(4-(4-amino-7-cyano-1-methyl-3-(4-((4-methylpyrimidin-2-yl)oxy)phenyl)-1H-pyrrolo[3,2-c]pyridin-2-yl)phenyl)acrylamide] | ≤ 10 | < 5 | A (Selectivity of FGFR1/FGFR2 less than 500 but greater than or equal to 300) | B (Selectivity of FGFR3/FGFR2 less than 100 but greater than or equal to 25)
4 | C=CC(=O)Nc1ccc(-n2nc3c(=O)[nH]nc(N)c3c2-c2ccc(Oc3nccc(C)n3)c(OC)c2)cc1 [Compound 134, N-(4-(4-amino-3-(3-methoxy-4-((4-methylpyrimidin-2-yl)oxy)phenyl)-7-oxo-6,7-dihydro-2H-pyrazolo[3,4-d]pyridazin-2-yl)phenyl)acrylamide] | > 50 | < 5 | C (Selectivity of FGFR1/FGFR2 less than 200 but greater than or equal to 100) | A+ (Selectivity of FGFR3/FGFR2 greater or equal to 150)
5 | C=CC(=O)Nc1ccc(-c2nn3ncnc(N)c3c2-c2ccc(C(=O)NC3CC3)c(OC)c2)cc1 [Compound 89, 4-(6-(4-acrylamidophenyl)-4-aminopyrazolo[5,1-f] [1,2,4]triazin-5-yl)-N-cyclopropyl-2-methoxybenzamide] | ≤ 10 | < 5 | A+ (Selectivity of FGFR1/FGFR2 greater or equal to 500) | A+ (Selectivity of FGFR3/FGFR2 greater or equal to 150)
6 | C=C(F)C(=O)Nc1ccc(-c2nn3ncnc(N)c3c2-c2ccc(C(=O)NCC(F)(F)F)c(OC)c2)c(OC)c1 [Compound 102, 4-(4-amino-6-(4-(2-fluoroacrylamido)-2-methoxyphenyl)pyrazolo[5,1-f][1,2,4]triazin-5-yl)-2-methoxy-N-(2,2,2-trifluoroethyl)benzamide] | ≤ 10 | > 10 | B (Selectivity of FGFR1/FGFR2 less than 300 but greater than or equal to 200) | B (Selectivity of FGFR3/FGFR2 less than 100 but greater than or equal to 25)
7 | C=CC(=O)Nc1ccc(-c2c(-c3ccc(C(=O)NC4CC4)c(OC)c3)c3c(N)ncc(C#N)c3n2CC(F)(F)F)cc1 [Compound 342] | ≤ 10 | < 5 | B (Selectivity of FGFR1/FGFR2 less than 300 but greater than or equal to 200) | A+ (Selectivity of FGFR3/FGFR2 greater or equal to 150)
8 | C=CC(=O)Nc1ccc(-c2nn3ncnc(N)c3c2-c2ccc(C(=O)C3CCCCC3)c(OC)c2)cc1 [Compound 431, N-(4-(4-amino-5-(4-(cyclohexanecarbonyl)-3-methoxyphenyl)pyrazolo[5,1-f][1,2,4]triazin-6-yl)phenyl) acrylamide] | ≤ 10 | > 10 | A+ (Selectivity of FGFR1/FGFR2 greater or equal to 500) | A+ (Selectivity of FGFR3/FGFR2 greater or equal to 150)
9 | C=CC(=O)Nc1ccc(-c2nn3ncnc(N)c3c2-c2ccc(C(=O)NCC(F)(F)F)c(OC)c2)c(OC)c1 [Compound 85, 4-(6-(4-acrylamido-2-methoxyphenyl)-4-aminopyrazolo[5,1-f] [1,2,4]triazin-5-yl)-2-methoxy-N-(2,2,2-trifluoroethyl)benzamide] | ≤ 10 | < 5 | A+ (Selectivity of FGFR1/FGFR2 greater or equal to 500) | A+ (Selectivity of FGFR3/FGFR2 greater or equal to 150)

Now from value to compound, other results behind:

Row | IC50 (SNU16 cells) [nM] | IC50 (FGFR2) [nM] | SMILES | Selectivity FGFR1/FGFR2 (FGFR1) | Selectivity FGFR3/FGFR2 (FGFR3)
10 | ≤ 10 | < 5 | C=CC(=O)Nc1ccc(-c2nn3ncnc(N)c3c2-c2ccc(C(=O)NC3CC3)c(OC)c2)c(F)c1 [Compound 155, 4-(6-(4-acrylamido-2-fluorophenyl)-4-aminopyrazolo[5,1-f] [1,2,4]triazin-5-yl)-N-cyclopropyl-2-methoxybenzamide] | A+ (Selectivity of FGFR1/FGFR2 greater or equal to 500) | A (Selectivity of FGFR3/FGFR2 less than 150 but greater than or equal to 100)
11 | ≤ 10 | > 10 | C=CC(=O)Nc1ccc(-c2nn3ncnc(N)c3c2-c2ccc(NC(=O)C3CC(F)(F)C3)c(OC)c2)cc1 [Compound 340, N-(4-(6-(4-acrylamidophenyl)-4-aminopyrazolo[5,1-f][1,2,4]triazin-5-yl)-2-methoxyphenyl)-3,3-difluorocyclobutane-1-carboxamide] | B (Selectivity of FGFR1/FGFR2 less than 300 but greater than or equal to 200) | A (Selectivity of FGFR3/FGFR2 less than 150 but greater than or equal to 100)
12 | ≤ 10 | > 10 | CC#CC(=O)Nc1ccc(-c2nn3ncnc(N)c3c2-c2ccc(C(=O)NC3(C(F)(F)F)CC3)c(OC)c2)cc1 [Compound 395] | A+ (Selectivity of FGFR1/FGFR2 greater or equal to 500) | B (Selectivity of FGFR3/FGFR2 less than 100 but greater than or equal to 25)
13 | ≤ 10 | < 5 | C=CC(=O)Nc1ccc(-c2c(-c3cc(F)c(Oc4ncc(F)c(C)n4)c(F)c3)c3c(N)ncc(C#N)c3n2C)cc1 [Compound 497] | A+ (Selectivity of FGFR1/FGFR2 greater or equal to 500) | A+ (Selectivity of FGFR3/FGFR2 greater or equal to 150)
14 | ≤ 10 | < 5 | C=CC(=O)Nc1ccc(-c2c(-c3ccc(C(=O)NCC(F)(F)F)c(OC)c3)c3c(N)ncc(C#N)c3n2C)c(F)c1 [Compound 150, 4-(2-(4-acrylamido-2-fluorophenyl)-4-amino-7-cyano-1-methyl-1H-pyrrolo[3,2-c]pyridin-3-yl)-2-methoxy-N-(2,2,2-trifluoroethyl)benzamide] | A+ (Selectivity of FGFR1/FGFR2 greater or equal to 500) | B (Selectivity of FGFR3/FGFR2 less than 100 but greater than or equal to 25)
15 | ≤ 10 | 5 to 10 | C=C(C)C(=O)Nc1ccc(-c2nn3ncnc(N)c3c2-c2ccc(C(=O)NC3(C(F)(F)F)CC3)c(OC)c2)c(F)c1 [Compound 429] | A+ (Selectivity of FGFR1/FGFR2 greater or equal to 500) | A+ (Selectivity of FGFR3/FGFR2 greater or equal to 150)
16 | ≤ 10 | < 5 | C=C(F)C(=O)Nc1ccc(-c2nn3ncnc(N)c3c2-c2ccc(C(=O)NC34CC(F)(C3)C4)c(OC)c2)c(OC)c1 [Compound 416, 4-(4-amino-6-(4-(2-fluoroacrylamido)-2-methoxyphenyl)pyrazolo[5,1-f][1,2,4]triazin-5-yl)-N-(3-fluorobicyclo[1.1.1]pentan-1-yl)-2-methoxybenzamide] | B (Selectivity of FGFR1/FGFR2 less than 300 but greater than or equal to 200) | B (Selectivity of FGFR3/FGFR2 less than 100 but greater than or equal to 25)
